{"source": "ChEMBL document CHEMBL1201862", "about": "“PubChem BioAssay data set” (2004)", "experiment_in_all_cases": "DTP human tumour cell line panel, 48 h", "key": {"786-0": {"test_system": "786-0"}, "A498": {"test_system": "A498"}, "A549": {"test_system": "A549"}, "ACHN": {"test_system": "ACHN"}, "BT-549": {"test_system": "BT-549"}, "CAKI-1": {"test_system": "CAKI-1"}, "CCRF-CEM": {"test_system": "CCRF-CEM"}, "COLO 205": {"test_system": "COLO 205"}, "DU-145": {"test_system": "DU-145"}, "EKVX": {"test_system": "EKVX"}, "HCC 2998": {"test_system": "HCC 2998"}, "HCT-116": {"test_system": "HCT-116"}, "HCT-15": {"test_system": "HCT-15"}, "HL-60": {"test_system": "HL-60"}, "HOP-62": {"test_system": "HOP-62"}, "HOP-92": {"test_system": "HOP-92"}, "HT-29": {"test_system": "HT-29"}, "Hs-578T": {"test_system": "Hs-578T"}, "IGROV-1": {"test_system": "IGROV-1"}, "K562": {"test_system": "K562"}, "KM12": {"test_system": "KM12"}, "LOX IMVI": {"test_system": "LOX IMVI"}, "M14": {"test_system": "M14"}, "MCF7": {"test_system": "MCF7"}, "MDA-MB-231": {"test_system": "MDA-MB-231"}, "MDA-MB-435": {"test_system": "MDA-MB-435"}, "MDA-N": {"test_system": "MDA-N"}, "MOLT-4": {"test_system": "MOLT-4"}, "Malme-3M": {"test_system": "Malme-3M"}, "NCI-H226": {"test_system": "NCI-H226"}, "NCI-H23": {"test_system": "NCI-H23"}, "NCI-H460": {"test_system": "NCI-H460"}, "NCI-H522": {"test_system": "NCI-H522"}, "NCI/ADR-RES": {"test_system": "NCI/ADR-RES"}, "OVCAR-3": {"test_system": "OVCAR-3"}, "OVCAR-4": {"test_system": "OVCAR-4"}, "OVCAR-5": {"test_system": "OVCAR-5"}, "OVCAR-8": {"test_system": "OVCAR-8"}, "PC-3": {"test_system": "PC-3"}, "RPMI-8226": {"test_system": "RPMI-8226"}, "RXF 393": {"test_system": "RXF 393"}, "SF-268": {"test_system": "SF-268"}, "SF-295": {"test_system": "SF-295"}, "SF-539": {"test_system": "SF-539"}, "SK-MEL-28": {"test_system": "SK-MEL-28"}, "SK-MEL-2": {"test_system": "SK-MEL-2"}, "SK-MEL-5": {"test_system": "SK-MEL-5"}, "SK-OV-3": {"test_system": "SK-OV-3"}, "SN12C": {"test_system": "SN12C"}, "SNB-19": {"test_system": "SNB-19"}, "SNB-75": {"test_system": "SNB-75"}, "SR": {"test_system": "SR"}, "SW-620": {"test_system": "SW-620"}, "T47D": {"test_system": "T47D"}, "TK-10": {"test_system": "TK-10"}, "U-251": {"test_system": "U-251"}, "UACC-257": {"test_system": "UACC-257"}, "UACC-62": {"test_system": "UACC-62"}, "UO-31": {"test_system": "UO-31"}}, "note": "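1) Cells in 96-well plates. 2) Compound, 48 h, 5 concentrations. 3) Linear interpolation between surrounding doses. 4) Unreached endpoint = highest concentration. GI50 = concentration required for 50% inhibition of growth.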 Calls of active or inactive are those of the source. No stated cut-off is given here; in the data, active = GI50 up to about 1.1 µM and inactive = higher."}
{"smiles": "CC1OC(O[C@@H]2OC=C(C=O)[C@@]3(O)CC[C@H](C)[C@@H]23)C(O)C(O)C1O", "note": "(some centres undefined)", "values": [{"measurement": "GI50", "setting": "786-0", "result": "> 100 µM (inactive)"}, {"measurement": "GI50", "setting": "A498", "result": "> 100 µM (inactive)"}, {"measurement": "GI50", "setting": "A549", "result": "> 100 µM (inactive)"}, {"measurement": "GI50", "setting": "ACHN", "result": "> 100 µM (inactive)"}, {"measurement": "GI50", "setting": "BT-549", "result": "> 100 µM (inactive)"}, {"measurement": "GI50", "setting": "CAKI-1", "result": "> 100 µM (inactive)"}, {"measurement": "GI50", "setting": "CCRF-CEM", "result": "> 100 µM (inactive)"}, {"measurement": "GI50", "setting": "COLO 205", "result": "> 100 µM (inactive)"}, {"measurement": "GI50", "setting": "DU-145", "result": "> 100 µM (inactive)"}, {"measurement": "GI50", "setting": "EKVX", "result": "> 100 µM (inactive)"}, {"measurement": "GI50", "setting": "HCC 2998", "result": "> 100 µM (inactive)"}, {"measurement": "GI50", "setting": "HCT-116", "result": "> 100 µM (inactive)"}, {"measurement": "GI50", "setting": "HCT-15", "result": "> 100", "unit": "µM"}, {"measurement": "GI50", "setting": "HL-60", "result": "> 100 µM (inactive)"}, {"measurement": "GI50", "setting": "HOP-62", "result": "> 100 µM (inactive)"}, {"measurement": "GI50", "setting": "HOP-92", "result": "> 100 µM (inactive)"}, {"measurement": "GI50", "setting": "HT-29", "result": "> 100 µM (inactive)"}, {"measurement": "GI50", "setting": "Hs-578T", "result": "> 100 µM (inactive)"}, {"measurement": "GI50", "setting": "IGROV-1", "result": "> 100 µM (inactive)"}, {"measurement": "GI50", "setting": "K562", "result": "> 100 µM (inactive)"}, {"measurement": "GI50", "setting": "KM12", "result": "> 100 µM (inactive)"}, {"measurement": "GI50", "setting": "LOX IMVI", "result": "> 100 µM (inactive)"}, {"measurement": "GI50", "setting": "M14", "result": "> 100 µM (inactive)"}, {"measurement": "GI50", "setting": "MCF7", "result": "> 100 µM (inactive)"}, {"measurement": "GI50", "setting": "MDA-MB-231", "result": "> 100 µM (inactive)"}, {"measurement": "GI50", "setting": "MDA-MB-435", "result": "> 100 µM (inactive)"}, {"measurement": "GI50", "setting": "MDA-N", "result": "> 100 µM (inactive)"}, {"measurement": "GI50", "setting": "MOLT-4", "result": "> 100 µM (inactive)"}, {"measurement": "GI50", "setting": "Malme-3M", "result": "> 100 µM (inactive)"}, {"measurement": "GI50", "setting": "NCI-H226", "result": "> 100 µM (inactive)"}, {"measurement": "GI50", "setting": "NCI-H23", "result": "> 100 µM (inactive)"}, {"measurement": "GI50", "setting": "NCI-H460", "result": "> 100 µM (inactive)"}, {"measurement": "GI50", "setting": "NCI-H522", "result": "> 100 µM (inactive)"}, {"measurement": "GI50", "setting": "NCI/ADR-RES", "result": "> 100 µM (inactive)"}, {"measurement": "GI50", "setting": "OVCAR-3", "result": "> 100 µM (inactive)"}, {"measurement": "GI50", "setting": "OVCAR-4", "result": "> 100 µM (inactive)"}, {"measurement": "GI50", "setting": "OVCAR-5", "result": "> 100 µM (inactive)"}, {"measurement": "GI50", "setting": "OVCAR-8", "result": "> 100 µM (inactive)"}, {"measurement": "GI50", "setting": "PC-3", "result": "> 100 µM (inactive)"}, {"measurement": "GI50", "setting": "RPMI-8226", "result": "> 100 µM (inactive)"}, {"measurement": "GI50", "setting": "RXF 393", "result": "> 100 µM (inactive)"}, {"measurement": "GI50", "setting": "SF-268", "result": "> 100 µM (inactive)"}, {"measurement": "GI50", "setting": "SF-295", "result": "> 100 µM (inactive)"}, {"measurement": "GI50", "setting": "SF-539", "result": "> 100 µM (inactive)"}, {"measurement": "GI50", "setting": "SK-MEL-28", "result": "> 100 µM (inactive)"}, {"measurement": "GI50", "setting": "SK-MEL-2", "result": "> 100 µM (inactive)"}, {"measurement": "GI50", "setting": "SK-MEL-5", "result": "> 100 µM (inactive)"}, {"measurement": "GI50", "setting": "SK-OV-3", "result": "> 100 µM (inactive)"}, {"measurement": "GI50", "setting": "SN12C", "result": "> 100 µM (inactive)"}, {"measurement": "GI50", "setting": "SNB-19", "result": "> 100 µM (inactive)"}, {"measurement": "GI50", "setting": "SNB-75", "result": "> 100 µM (inactive)"}, {"measurement": "GI50", "setting": "SR", "result": "> 100 µM (inactive)"}, {"measurement": "GI50", "setting": "SW-620", "result": "> 100 µM (inactive)"}, {"measurement": "GI50", "setting": "T47D", "result": "> 100 µM (inactive)"}, {"measurement": "GI50", "setting": "TK-10", "result": "> 100 µM (inactive)"}, {"measurement": "GI50", "setting": "U-251", "result": "> 100 µM (inactive)"}, {"measurement": "GI50", "setting": "UACC-257", "result": "> 100 µM (inactive)"}, {"measurement": "GI50", "setting": "UACC-62", "result": "> 100 µM (inactive)"}, {"measurement": "GI50", "setting": "UO-31", "result": "> 100 µM (inactive)"}]}
